These results are taken from patent US7238362B2, “Dithianon-based fungicidal mixtures” (BASF Aktiengesellschaft, priority 2002, dated 2007).

The subject of this assay is Alternaria solani. Briefly: Activity against early blight of tomato caused by Alternaria solani (protective spray, potted tomato plants). It is filed as in vivo. Conditions: individual active compound, tomato leaves, evaluated after 5 days. The protocol:
The active compounds were prepared separately as a stock solution comprising 0.25% by weight of active compound in acetone or DMSO. 1% by weight of the emulsifier Uniperol® EL (wetting agent having emulsifying and dispersing action based on ethoxylated alkylphenols) was added to this solution, and the mixture was diluted with water to the desired concentration.
Leaves of potted plants of the cultivar “Groβe Fleischtomate St. Pierre” were sprayed to runoff point with an aqueous suspension having the concentration of active compounds stated below. The next day, the leaves were infected with an aqueous […] suspension of Alternaria solani in 2% biomalt solution having a density of 0.17×10^6 spores/ml. The plants were then placed in a water-vapor-saturated chamber at temperatures of between 20 and 22 C. After 5 days, the infection on the leaves of the untreated, but infected control plants had developed to such an extent that the infection could be determined visually in %.
Evaluation was carried out by determining the infected leaf area in per cent. These percentages were converted into efficacies.
The efficacy (E) is calculated as follows using Abbot's formula: E=(1−α/β)·100 • α corresponds to the fungal infection of the treated plants in % and • β corresponds to the fungal infection of the untreated (control) plants in %
An efficacy of 0 means that the infection level of the treated plants corresponds to that of the untreated control plants; an efficacy of 100 means that the treated plants were not infected. […]

Consider `N#Cc1sc2c(=O)c3ccccc3c(=O)c=2sc1C#N` [I, dithianon], for which the “Efficacy in % of the untreated control” value runs as follows: (8 ppm in the spray liquor) 0%; (16 ppm in the spray liquor) 0%; (31 ppm in the spray liquor) 27%; (63 ppm in the spray liquor) 63%.

Consider `O=C(Nc1ccccc1-c1ccc(Cl)cc1)c1cccnc1Cl` [II-1, boscalid], for which the “Efficacy in % of the untreated control” value runs as follows: (8 ppm in the spray liquor) 63%; (16 ppm in the spray liquor) 76%; (31 ppm in the spray liquor) 82%; (63 ppm in the spray liquor) 88%.

Regarding `O=C(Nc1ccccc1-c1ccc(F)cc1)c1cccnc1Cl` [II-2], the “Efficacy in % of the untreated control” value is, setting by setting: (8 ppm in the spray liquor) 27%; (16 ppm in the spray liquor) 39%; (31 ppm in the spray liquor) 27%; (63 ppm in the spray liquor) 88%.
